The values below are quoted from earlier work in patent US9468626B2, “Melatonin-based formulations for parenteral administration” (CHIESI FARMACEUTICI S.p.A., priority 2014, dated 2016).

For one series, the system named is newborn piglets. Conditions: intravenously, 5 mg/kg/h.
The conditions of series [1]: exposed to light or oxygen.
For series [2] the following is noted: in vivo.

For the compound `COc1ccc2[nH]cc(CCNC(C)=O)c2c1` [melatonin, N-[2-(5-Methoxy-1H-indol-3-yl)ethyl]acetamide], the solubility in water entry is “poorly soluble in water”. Also, in the series with newborn piglets, the hypothermic neuroprotection result is on record as “increases hypothermic neuroprotection”. Further, the “stability in aqueous solution” value in series [1] is recorded as “not stable when exposed to light or oxygen”. The oral bioavailability entry in series [2] was “low and very variable”.
